Data published in EPA's ToxValDB 9.5.
Converted amounts (≈) assume the structure as drawn.

Columns and labels:
Daphnia magna = conditions: chronic/long-term; duration: 21 days; reproduction
Colinus virginianus = conditions: for LD50: acute, oral, mortality
Pimephales promelas = conditions: chronic/long-term; duration: 255 days; growth
Rattus norvegicus = conditions: for LD50: mortality
Bovidae = conditions: for LEL: no effects
Canidae = conditions: for NOAEL: oral
Sus scrofa = conditions: short-term, oral, diet, Not specified; for LEL: duration: 28 days, no effects
Oncorhynchus mykiss = conditions: acute; duration: 96 hours; mortality
Mus musculus = conditions: acute; oral; gavage; M; ICR; clinical signs
Bibionidae = conditions: chronic/long-term; other
Pontoscolex corethrurus = conditions: acute; duration: 14 days; body weight
Ovis sp. = conditions: subchronic; duration: 8 weeks; oral; diet; no effects
Homo sapiens = conditions: clinical, oral
[1] = reproduction developmental, reproduction
[2] = chronic, duration: 1 years, Dog Other, clinical chemistry

Question: For O=C(O)CNCP(=O)(O)O [Glyphosate], which NOEC (Daphnia magna) is on record?
Answer: 12.5 mg/L

Question: And the LD50 (Colinus virginianus)?
Answer: 4330 mg/kg-day

Question: And the NOEL (Colinus virginianus; reproduction developmental)?
Answer: 96.3 mg/kg-day

Question: What about the NOEC (Pimephales promelas) of the same compound?
Answer: 25.7 mg/L

Question: And the NOEC (Danio rerio; short-term, duration: 168 hours, growth)?
Answer: 1 mg/L

Question: What about the NOAEL (Oryctolagus sp.; chronic) of the same compound?
Answer: 50 mg/kg-day

Question: And the NOEL (Anas platyrhynchos; reproductive)?
Answer: 125 mg/kg-day

Question: And the LD50 (Rattus norvegicus; acute, oral)?
Answer: > 2000 mg/kg-day

Question: For ClC1=C(Cl)[C@]2(Cl)[C@@H]3[C@@H](Cl)[C@H]4O[C@H]4[C@@H]3C1(Cl)C2(Cl)Cl [Heptachlor epoxide B], which NOAEL (Gallus gallus; chronic, duration: 25 weeks, oral, diet, M/F, development) is on record?
Answer: 0.002 mg/kg-day

Question: What about the NOAEL (Bovidae; subchronic, oral, diet, F) of the same compound?
Answer: 1.5 mg/kg-day

Question: What about the NOAEL (Canidae; chronic, duration: 2 years, diet, M/F, Beagle, clinical chemistry) of the same compound?
Answer: 0.025 mg/kg-day

Question: With CC(C)C [Isobutane] as the compound, how does the NOAEC [1] read?
Answer: 7.12 mg/m3

Question: Which LEL (Gallus gallus; subchronic, duration: 42 days, oral, diet, Chicken, no effects) does the source give for CC(O)C(=O)O (configuration not stated) [Lactic acid] here?
Answer: 30000 mg/kg-day

Question: With O=C(O)CC(O)C(=O)O (configuration not stated) [Malic acid] as the compound, how does the LEL (Gallus gallus; short-term, duration: 21 days, oral, diet, food consumption) read?
Answer: 20000 mg/kg-day

Question: And the LEL (Sus scrofa; M/F)?
Answer: 12000 mg/kg-day

Question: What about the LEL (Bovidae; subchronic, oral, diet) of the same compound?
Answer: 23000 mg/kg-day

Question: And the LEL (Canidae; chronic, duration: 104 weeks, M/F, Beagle, no effects)?
Answer: 50000 mg/kg-day

Question: What does the source list for CBr [Methyl bromide]?
Answer: LD50 (Colinus virginianus): 73 mg/kg; LC50 (Oncorhynchus mykiss): 3.9 mg/L; LD50 (Rattus norvegicus; acute, oral): 104 mg/kg; NOAEL (Rattus norvegicus; [1]): 90 mg/kg-day; NOAEL (Canidae; chronic, duration: 1 years, Dog Other): 0.27 mg/kg-day; NOAEL (Canidae; [2]): 0.13 mg/kg-day

Question: Which NOAEL (Rattus norvegicus; developmental, duration: 15 days, oral, gavage, F, Sprague-Dawley, development) does the source give for NC(=O)c1ccc[n+]([C@@H]2O[C@H](CO)[C@@H](O)[C@H]2O)c1.[Cl-] [Nicotinamide riboside chloride] here?
Answer: 325 mg/kg-day

Question: What about the NOAEL (Rattus norvegicus; subchronic, duration: 90 days, oral, gavage, M/F, Sprague-Dawley, body weight) of the same compound?
Answer: 300 mg/kg-day

Question: What about the NOAEL (Canidae; short-term, duration: 28 days, gavage, M/F, Beagle, clinical chemistry) of the same compound?
Answer: 300 mg/kg-day

Question: Which LOAEL (Gallus gallus; repeat dose other, organ weight) does the source give for CC1=C[C@H]2O[C@@H]3[C@H](O)[C@@H](O)[C@](C)([C@@]2(CO)[C@H](O)C1=O)[C@]31CO1 [Nivalenol] here?
Answer: 0.36 mg/kg-day

Question: With C=C(/C=C\C[C@@H](O)[C@@H](O)[C@H](O)C/C=C/C=C\[C@@H](O)C[C@@H]1O[C@H](C[C@@H](O)[C@H](O)C[C@H]2O[C@H]([C@H](O)[C@H](O)CC[C@H](O)/C=C/[C@H](C)[C@@H](O)C[C@]3(O)O[C@H]([C@@H](O)[C@@H](O)CCCCCCC[C@@]45C[C@@H](C)C[C@@](C)(O4)[C@@H](CCCCCCC[C@@H](O)C[C@H](O)[C@@H](O)[C@@H](O)[C@H]4O[C@H](C[C@H](O)[C@H](O)/C(C)=C/[C@H](O)CC[C@H](O)C(=O)N/C=C/C(=O)NCCCO)[C@H](O)[C@@H](O)[C@@H]4O)O5)C[C@@H](O)[C@H]3O)C[C@@H](O)[C@@H]2O)[C@@H](O)[C@H](O)[C@H]1O)CC[C@H](O)[C@@H](O)[C@H](O)[C@H](C)C[C@H]1O[C@H](/C=C\[C@@H](O)[C@H](O)C[C@@H]2C[C@@H]3C[C@H](O2)[C@@H](CC[C@H]2O[C@H](CN)C[C@H]2O)O3)[C@@H](O)[C@H](O)[C@H]1O [Ostreocin-D] as the compound, how does the LOAEL (Mus musculus) read?
Answer: 0.2 mg/kg-day

Question: What does the source list for CCN(CC)c1nc(C)cc(OP(=S)(OC)OC)n1 [Pirimiphos-methyl]?
Answer: LC50 (Oncorhynchus mykiss): 0.2 mg/L (≈ 0.655 µM); NOAEL (Rattus norvegicus; acute, clinical signs): 15 mg/kg-day; NOAEL (Rattus norvegicus; chronic, duration: 2 years, clinical signs): 0.4 mg/kg-day; NOAEL (Rattus norvegicus; subchronic, duration: 13 weeks, clinical signs): 2.1 mg/kg-day

Question: Which NOAEL (Oryctolagus sp.; reproduction developmental, histopathology: nonneoplastic) does the source give for CC1=NNC(=O)N(/N=C/c2cccnc2)C1 [Pymetrozine] here?
Answer: 10 mg/kg-day

Question: And the NOAEL (Canidae; [2])?
Answer: 0.57 mg/kg-day

Question: And the NOAEL (Canidae; subchronic, duration: 90 days, diet, Beagle, organ weight)?
Answer: 3 mg/kg-day

Question: Which results are given for CCS(=O)(=O)c1cccnc1S(=O)(=O)NC(=O)Nc1nc(OC)cc(OC)n1 [Rimsulfuron]?
Answer: NOAEL (Oryctolagus sp.; reproduction developmental, mortality): 170 mg/kg-day; LD50 (Anas platyrhynchos; acute, oral, unspecified, mortality): > 2000 mg/kg-day; NOEC (Anas platyrhynchos; reproductive, oral, feed): 117 mg/kg-day; LD50 (Rattus norvegicus; acute, oral): > 5000 mg/kg-day; NOAEL (Rattus norvegicus; chronic, duration: 2 years, oral, body weight): 11.8 mg/kg-day; NOAEL (Rattus norvegicus; reproduction developmental, body weight): 165 mg/kg-day; NOAEL (Canidae; subchronic, duration: 90 days, Dog Other, body weight): 9.63 mg/kg-day

Question: What does the source list for Cl.N/C(=N\N=C\c1ccc(Cl)cc1)N/N=C/c1ccc(Cl)cc1 [Robenidine hydrochloride]?
Answer: NOEC (repeat dose other, other): > 1.8 mg/kg-day; LEL (Gallus gallus; subchronic, duration: 9 weeks, oral, diet, M/F, no effects): 225 mg/kg-day; LEL (Gallus gallus; subchronic, duration: 35 days, oral, diet, M/F, Chicken, no effects): 82.5 mg/kg-day; NOEC (Bibionidae): 50 mg/kg; LEL (Sus scrofa): 120 mg/kg-day; LC50 (Danio rerio; acute, mortality): 0.036 mg/L; NOAEL (Oryctolagus sp.; reproduction developmental, duration: 84 days, oral, diet, New Zealand, reproduction): 11 mg/kg-day; LEL (Oryctolagus sp.; subchronic, duration: 48 days, oral, diet, no effects): 500 mg/kg-day; LEL (Bovidae; short-term, duration: 28 days): 60 mg/kg-day; LC50 (Pontoscolex corethrurus): > 1000 mg/kg; NOEL (Canidae; subchronic, duration: 90 days, Dog Other, organ weight): 7.5 mg/kg-day

Question: Which LEL (Ovis sp.) does the source give for COc1cc2c(c3oc4cccc(O)c4c(=O)c13)[C@@H]1C=CO[C@@H]1O2 [Sterigmatocystin] here?
Answer: 0.3 mg/kg-day

Question: With CCCCCc1cc(O)c2c(c1)OC(C)(C)[C@@H]1CCC(C)=C[C@@H]21 [Tetrahydrocannabinol] as the compound, how does the LEL (Homo sapiens; duration: 12 weeks, neurology) read?
Answer: 2.5 mg/day

Question: And the “LOAEL (mg/person-day)” value (Homo sapiens; capsule, other)?
Answer: 2.5

Question: With CC1=C[C@H]2O[C@@H]3[C@H](O)C[C@](C)([C@@]2(CO)[C@H](O)C1=O)[C@@]31CO1 [Vomitoxin] as the compound, how does the LOEL (Sus scrofa; duration: 21 days, food consumption) read?
Answer: 0.35 mg/kg-day
